Results reported in ChEMBL document CHEMBL5380834, “Design, Synthesis, and Biological Evaluation of Androgen Receptor (AR) Antagonist-Heat Shock Protein 90 (Hsp90) Inhibitor Conjugates for Targeted Therapy of Castration-Resistant Prostate Cancer” (J Med Chem, 2023).
pIC50: −log10 of the molar value. The source made the active and inactive calls. The rule behind the calls is not given here.

Legend:
LNCaP [1] = test: Cytotoxicity against AR-positive human LNCaP cells assessed as inhibition of cell growth incubated for 5 days in presence of AR agonist, R1881 in charcoal stripped serum by WST-1 assay; format: functional, cell-based; conditions: 120 h
CWR22R [2] = test: Cytotoxicity against human 22Rv1 cells assessed as inhibition of cell growth incubated for 5 days in presence of AR agonist, R1881 by WST-1 assay; format: functional, cell-based; conditions: 22Rv1, 120 h
[3] = target: T1, Androgen receptor (Homo sapiens) (UniProt P10275); test: Induction of full length AR degradation in human RWPE-1 cells at 10 uM measured for 24 hrs by Western blot analysis; format: cell-based
T1 sequence (whole entry): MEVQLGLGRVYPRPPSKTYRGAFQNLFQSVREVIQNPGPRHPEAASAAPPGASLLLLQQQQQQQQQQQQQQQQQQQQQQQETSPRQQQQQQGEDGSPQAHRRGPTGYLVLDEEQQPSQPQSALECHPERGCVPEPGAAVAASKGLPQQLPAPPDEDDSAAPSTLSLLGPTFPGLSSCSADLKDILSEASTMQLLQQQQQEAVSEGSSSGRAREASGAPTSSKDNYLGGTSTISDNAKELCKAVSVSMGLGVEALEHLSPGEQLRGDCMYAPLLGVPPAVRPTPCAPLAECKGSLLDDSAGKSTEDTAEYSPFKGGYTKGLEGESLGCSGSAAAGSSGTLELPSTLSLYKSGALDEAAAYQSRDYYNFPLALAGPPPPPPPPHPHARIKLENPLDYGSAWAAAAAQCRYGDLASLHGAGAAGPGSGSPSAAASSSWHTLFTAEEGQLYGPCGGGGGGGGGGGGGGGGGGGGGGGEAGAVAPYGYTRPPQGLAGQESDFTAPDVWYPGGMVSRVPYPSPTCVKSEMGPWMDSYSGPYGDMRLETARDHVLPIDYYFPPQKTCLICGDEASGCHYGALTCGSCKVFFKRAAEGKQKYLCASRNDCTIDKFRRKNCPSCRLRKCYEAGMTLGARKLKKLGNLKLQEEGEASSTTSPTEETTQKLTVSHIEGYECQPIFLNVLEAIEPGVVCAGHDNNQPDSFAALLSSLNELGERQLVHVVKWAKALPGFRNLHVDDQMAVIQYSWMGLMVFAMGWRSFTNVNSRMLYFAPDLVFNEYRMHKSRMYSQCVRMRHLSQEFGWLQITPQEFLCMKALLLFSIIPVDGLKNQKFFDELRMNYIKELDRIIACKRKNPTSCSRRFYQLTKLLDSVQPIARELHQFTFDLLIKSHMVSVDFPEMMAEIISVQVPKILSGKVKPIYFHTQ

LNCaP [4] = test: Induction of apoptosis in human LNCaP cells assessed as increase in caspase-3 level at 1 uM measured after 48 hrs by Western blot analysis; format: functional, cell-based
CWR22R [5] = test: Antitumor activity against human 22Rv1 cells xenografted in BALB/c nude mouse assessed as downregulation of AR-FL level at 2.5 mg/kg, ip administered once every 4th day for 3 weeks; format: functional, organism-based
CWR22R [6] = test: Antitumor activity against human 22Rv1 cells xenografted in BALB/c nude mouse assessed as downregulation of AR-V7 level at 2.5 mg/kg, ip administered once every 4th day for 3 weeks; format: functional, organism-based
LNCaP [7] = test: Antitumor activity against human LNCaP cells xenografted in BALB/c nude mouse assessed as inhibition of tumor growth at 2.5 to 5 mg/kg, po administered once every 4th day for 3 weeks; format: functional, organism-based; conditions: dose 2.5-5 mg/kg
[8] = Toxicity in BALB/c nude mouse xenografted with human LNCaP cells assessed as animal weight loss at 5 mg/kg, ip administered once every 4th day for 3 weeks; format: organism-based; conditions: in vivo, 504 h
LNCaP [9] = test: Antitumor activity against human LNCaP cells xenografted in BALB/c nude mouse assessed as downregulation of AR-FL level at 5 mg/kg, ip administered once every 4th day for 3 weeks and measured at 2 hrs post dose; format: functional, organism-based
LNCaP [10] = test: Antitumor activity against human LNCaP cells xenografted in BALB/c nude mouse assessed as downregulation of FKBP5 level at 5 mg/kg, ip administered once every 4th day for 3 weeks and measured at 2 hrs post dose; format: functional, organism-based
[11] = Biodistribution in BALB/c mouse testis xenografted with human 22Rv1 cells at 2.5 mg/kg, iv measured at 0.5 to 1 hrs; format: ADME, organism-based, CWR22R; conditions: in vivo, time 0.5-1 hrs
[12] = Biodistribution in BALB/c mouse kidney xenografted with human 22Rv1 cells at 2.5 mg/kg, iv measured at 0.5 to 1 hrs; format: ADME, organism-based, CWR22R; conditions: in vivo, time 0.5-1 hrs
[13] = Biodistribution in BALB/c mouse liver xenografted with human 22Rv1 cells at 2.5 mg/kg, iv measured at 0.5 to 1 hrs; format: ADME, organism-based, CWR22R; conditions: in vivo, time 0.5-1 hrs
[14] = Biodistribution in BALB/c mouse heart xenografted with human 22Rv1 cells at 2.5 mg/kg, iv measured at 0.5 to 1 hrs; format: ADME, organism-based, CWR22R; conditions: in vivo, time 0.5-1 hrs
[15] = Toxicity in ICR mouse assessed as animal weight loss at 30 to 50 mg/kg, iv administered every second day for 14 days; format: organism-based; conditions: in vivo, 336 h, dose 30-50 mg/kg, time 14 day
[16] = Toxicity in ICR mouse assessed as kidney damage at 30 to 50 mg/kg, iv administered every second day for 14 days; format: organism-based; conditions: in vivo, 336 h, dose 30-50 mg/kg, time 14 day
[17] = Toxicity in ICR mouse assessed as liver damage at 30 to 50 mg/kg, iv administered every second day for 14 days; format: organism-based; conditions: in vivo, 336 h, dose 30-50 mg/kg, time 14 day
[18] = Toxicity in ICR mouse assessed as lung damage at 30 to 50 mg/kg, iv administered every second day for 14 days; format: organism-based; conditions: in vivo, 336 h, dose 30-50 mg/kg, time 14 day
[19] = Toxicity in ICR mouse assessed as spleen damage at 30 to 50 mg/kg, iv administered every second day for 14 days; format: organism-based; conditions: in vivo, 336 h, dose 30-50 mg/kg, time 14 day
[20] = Toxicity in ICR mouse assessed as testis damage at 30 to 50 mg/kg, iv administered every second day for 14 days; format: organism-based; conditions: in vivo, 336 h, dose 30-50 mg/kg, time 14 day

- Activity [3]: inactive
- Drug uptake [11]: Active
- Drug uptake [12]: Active
- Drug uptake [13]: Active
- Drug uptake [14]: Active
Compound: CC(C)c1cc(-c2n[nH]c(=O)n2-c2ccc(CN3CCN(CC4CCN(c5ccc(C(=O)N[C@H]6CC[C@H](Oc7ccc(C#N)c(Cl)c7)CC6)nn5)CC4)CC3)cc2)c(O)cc1O
- pIC50 (LNCaP [1]): 6.77
- pIC50 (CWR22R [2]): 7.58
- Activity (LNCaP [4]): Active
- Activity (CWR22R [5]): Active
- Activity (CWR22R [6]): Active
- Activity (LNCaP [7]): Active
- Activity [8]: 10%
- Activity (LNCaP [9]): Active
- Activity (LNCaP [10]): Active
- Activity [15]: Non-Toxic
- Activity [16]: Non-Toxic
- Activity [17]: Non-Toxic
- Activity [18]: Non-Toxic
- Activity [19]: Non-Toxic
- Activity [20]: Non-Toxic
